Results reported in patent US6737383B1, “Herbicidal oxadiazolidines” (priority 1999, dated 2004).

Legend:
giant foxtail = test: Test B pre/postemergence giant foxtail; assay type: in vivo, Setaria faberii; settings: for Plant response rating, Giant foxtail: scale of 0 to 10 where 0 is no effect and 10 is complete control
Procedure, shortened: (§1)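 Herbicidal effect was estimated by eye on a ten-point control scale after plants spent twelve to sixteen days in a greenhouse following soil or foliar treatment. Foliar sprays targeted plants at one to four leaves; all doses were formulated in a non-phytotoxic solvent with surfactant.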

soybean = test: Test B pre/postemergence soybean; assay type: in vivo, Glycine max; settings: for Plant response rating, Soybean: scale of 0 to 10 where 0 is no effect and 10 is complete control
Procedure, shortened: as §1

bedstraw = test: Test B pre/postemergence bedstraw; assay type: in vivo, Galium aparine; settings: Postemergence, scale 0 to 10 (0 no effect, 10 complete control)
Procedure, shortened: as §1

cocklebur = test: Test B pre/postemergence cocklebur; assay type: in vivo, Xanthium strumarium; settings: for Plant response rating, Cocklebur: scale of 0 to 10 where 0 is no effect and 10 is complete control
Procedure, shortened: as §1

wild oat = test: Test B pre/postemergence wild oat; assay type: in vivo, Avena fatua; settings: for Plant response rating, Wild oats: scale of 0 to 10 where 0 is no effect and 10 is complete control
Procedure, shortened: as §1

wheat = test: Test B pre/postemergence wheat; assay type: in vivo, Triticum aestivum; settings: for Plant response rating, Wheat: scale of 0 to 10 where 0 is no effect and 10 is complete control
Procedure, shortened: as §1

surinam grass = test: Test B pre/postemergence surinam grass; assay type: in vivo, Brachiaria decumbens; settings: for Plant response rating, B. signalgrass: scale of 0 to 10 where 0 is no effect and 10 is complete control
Procedure, shortened: as §1

corn = test: Test B pre/postemergence corn; assay type: in vivo, Zea mays; settings: for Plant response rating, Corn: scale of 0 to 10 where 0 is no effect and 10 is complete control
Procedure, shortened: as §1

morningglory = test: Test B pre/postemergence morningglory; assay type: in vivo, Ipomoea hederacea; settings: for Plant response rating, Morningglory: scale of 0 to 10 where 0 is no effect and 10 is complete control
Procedure, shortened: as §1

velvetleaf = test: Test B pre/postemergence velvetleaf; assay type: in vivo, Abutilon theophrasti; settings: for Plant response rating, Velvetleaf: scale of 0 to 10 where 0 is no effect and 10 is complete control
Procedure, shortened: as §1

rice = test: Test B flood test rice; assay type: in vivo, Oryza sativa
Procedure, shortened: (§2)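 Flood test on plants grown to the 2-leaf stage; treated plants kept in greenhouse twelve to sixteen days, then visually rated against controls on a 0 (no effect) to 10 (complete control) scale.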

blackgrass = test: Test B pre/postemergence blackgrass; assay type: in vivo, Alopecurus myosuroides; settings: for Plant response rating, Blackgrass: scale of 0 to 10 where 0 is no effect and 10 is complete control
Procedure, shortened: as §1

bamyardgrass = test: Test B flood test barnyardgrass; assay type: in vivo, Echinochloa crus-galli
Procedure, shortened: as §2

smallflower flatsedge = test: Test B flood test smallflower flatsedge; assay type: in vivo, Cyperus difformis
Procedure, shortened: as §2

crabgrass = test: Test B pre/postemergence crabgrass; assay type: in vivo, Digitaria sanguinalis; settings: for Plant response rating, Crabgrass: scale of 0 to 10 where 0 is no effect and 10 is complete control
Procedure, shortened: as §1

pigweed = test: Test B pre/postemergence pigweed; assay type: in vivo, Amaranthus retroflexus; settings: for Plant response rating, Redroot pigweed: scale of 0 to 10 where 0 is no effect and 10 is complete control
Procedure, shortened: as §1

[1] = Postemergence, Rate 31 g/ha, visual rating, scale 0 to 10 (0 no effect, 10 complete control)
[2] = Postemergence, Rate 250 g/ha, scale 0 to 10
[3] = Preemergence, Rate 31 g/ha, visual rating, scale 0 to 10 (0 no effect, 10 complete control)
[4] = Preemergence, Rate 250 g/ha, scale 0 to 10, 0 is no effect, 10 is complete control
[5] = Rate 62 g/ha, Postemergence, scale 0 to 10 (0 no effect, 10 complete control)
[6] = Rate 125 g/ha, Postemergence, scale 0 to 10, 0 is no effect, 10 is complete control
[7] = Rate 31 g/ha, Pre-emergence section (flood test species), scale 0 to 10
[8] = Rate 62 g/ha, flood test species, Pre-emergence, visual evaluation after twelve to sixteen days
[9] = Rate 125 g/ha, under heading Pre-emergence, flood test species, visual evaluation after twelve to sixteen days
[10] = Rate 250 g/ha, Pre-emergence (flood test species), scale 0 to 10, 0 is no effect, 10 is complete control

Cc1nc(C)c(C(C)n2c(=O)on(C(=O)N(c3ccccc3)C(C)C)c2=O)s1 (centres unmarked) [Compound 442]
Giant foxtail plant response rating (giant foxtail; [1]): 0 | Giant foxtail plant response rating (giant foxtail; [2]): 0 | Giant foxtail plant response rating (giant foxtail; [3]): 0 | Plant response rating, Giant foxtail (giant foxtail; Preemergence, Rate 62 g/ha): 0 | Plant response rating, Giant foxtail (giant foxtail; Preemergence, Rate 125 g/ha): 0 | Giant foxtail plant response rating (giant foxtail; [4]): 3 | Giant foxtail plant response rating (giant foxtail; [5]): 0 | Giant foxtail plant response rating (giant foxtail; [6]): 0 | Soybean plant response rating (soybean; [1]): 0 | Soybean plant response rating (soybean; [2]): 0 | Plant response rating, Soybean (soybean; Preemergence, Rate 62 g/ha): 0 | Plant response rating, Soybean (soybean; Preemergence, Rate 125 g/ha): 0 | Soybean plant response rating (soybean; [4]): 0 | Soybean plant response rating (soybean; [5]): 0 | Soybean plant response rating (soybean; [6]): 0 | Bedstraw plant response rating (bedstraw; Rate 31 g/ha, visual rating): 0 | Bedstraw plant response rating (bedstraw; Rate 62 g/ha): 0 | Cocklebur plant response rating (cocklebur; [1]): 0 | Cocklebur plant response rating (cocklebur; [2]): 0 | Cocklebur plant response rating (cocklebur; [3]): 0 | Plant response rating, Cocklebur (cocklebur; Preemergence, Rate 62 g/ha): 0 | Plant response rating, Cocklebur (cocklebur; Preemergence, Rate 125 g/ha): 0 | Cocklebur plant response rating (cocklebur; [4]): 0 | Cocklebur plant response rating (cocklebur; [5]): 0 | Cocklebur plant response rating (cocklebur; [6]): 0 | Wild oats plant response rating (wild oat; [1]): 0 | Wild oats plant response rating (wild oat; [2]): 0 | Plant response rating, Wild oats (wild oat; Preemergence, Rate 62 g/ha): 0 | Plant response rating, Wild oats (wild oat; Preemergence, Rate 125 g/ha): 0 | Wild oats plant response rating (wild oat; [4]): 0 | Wild oats plant response rating (wild oat; [5]): 0 | Wild oats plant response rating (wild oat; [6]): 0 | Wheat plant response rating (wheat; [1]): 0 | Wheat plant response rating (wheat; [2]): 0 | Plant response rating, Wheat (wheat; Preemergence, Rate 62 g/ha): 0 | Plant response rating, Wheat (wheat; Preemergence, Rate 125 g/ha): 0 | Wheat plant response rating (wheat; [4]): 0 | Wheat plant response rating (wheat; [5]): 0 | Wheat plant response rating (wheat; [6]): 0 | B. signalgrass plant response rating (surinam grass; [1]): 0 | B. signalgrass plant response rating (surinam grass; Postemergence, Rate 250 g/ha, scale 0 to 10, 0 no effect, 10 complete control): 0 | B. signalgrass plant response rating (surinam grass; [3]): 0 | Plant response rating, B. signalgrass (surinam grass; Preemergence, Rate 62 g/ha): 0 | Plant response rating, B. signalgrass (surinam grass; Preemergence, Rate 125 g/ha): 0 | B. signalgrass plant response rating (surinam grass; [4]): 0 | B. signalgrass plant response rating (surinam grass; [5]): 0 | B. signalgrass plant response rating (surinam grass; [6]): 0 | Corn plant response rating (corn; [1]): 0 | Corn plant response rating (corn; [2]): 0 | Corn plant response rating (corn; [3]): 0 | Plant response rating, Corn (corn; Preemergence, Rate 62 g/ha): 0 | Plant response rating, Corn (corn; Preemergence, Rate 125 g/ha): 0 | Corn plant response rating (corn; [4]): 0 | Corn plant response rating (corn; [5]): 0 | Corn plant response rating (corn; [6]): 0 | Morningglory plant response rating (morningglory; [1]): 1 | Morningglory plant response rating (morningglory; [2]): 7 | Plant response rating, Morningglory (morningglory; Preemergence, Rate 62 g/ha): 0 | Plant response rating, Morningglory (morningglory; Preemergence, Rate 125 g/ha): 0 | Morningglory plant response rating (morningglory; [4]): 0 | Morningglory plant response rating (morningglory; [5]): 4 | Morningglory plant response rating (morningglory; [6]): 4 | Velvetleaf plant response rating (velvetleaf; [1]): 0 | Velvetleaf plant response rating (velvetleaf; [2]): 0 | Plant response rating, Velvetleaf (velvetleaf; Preemergence, Rate 62 g/ha): 0 | Plant response rating, Velvetleaf (velvetleaf; Preemergence, Rate 125 g/ha): 0 | Velvetleaf plant response rating (velvetleaf; [4]): 0 | Velvetleaf plant response rating (velvetleaf; [5]): 0 | Velvetleaf plant response rating (velvetleaf; [6]): 0 | Rice plant response rating (rice; [7]): 0 | Plant response rating, Rice (0 to 10 scale, 0 is no effect, 10 is complete control) (rice; [8]): 0 | Rice plant response rating (0 to 10 scale, 0 is no effect, 10 is complete control) (rice; [9]): 0 | Rice plant response rating (rice; [10]): 0 | Blackgrass plant response rating (blackgrass; [1]): 0 | Blackgrass plant response rating (blackgrass; [2]): 0 | Blackgrass plant response rating (blackgrass; [3]): 0 | Plant response rating, Blackgrass (blackgrass; Preemergence, Rate 62 g/ha): 0 | Plant response rating, Blackgrass (blackgrass; Preemergence, Rate 125 g/ha): 0 | Blackgrass plant response rating (blackgrass; [4]): 0 | Blackgrass plant response rating (blackgrass; [5]): 0 | Blackgrass plant response rating (blackgrass; [6]): 0 | Barnyardgrass plant response rating (bamyardgrass; [7]): 0 | Plant response rating, Barnyardgrass (0 to 10 scale, 0 is no effect, 10 is complete control) (bamyardgrass; [8]): 0 | Barnyardgrass plant response rating (0 to 10 scale, 0 is no effect, 10 is complete control) (bamyardgrass; [9]): 0 | Barnyardgrass plant response rating (bamyardgrass; [10]): 0 | S. Flatsedge plant response rating (smallflower flatsedge; [7]): 0 | Plant response rating, S. Flatsedge (0 to 10 scale, 0 is no effect, 10 is complete control) (smallflower flatsedge; [8]): 0 | S. Flatsedge plant response rating (0 to 10 scale, 0 is no effect, 10 is complete control) (smallflower flatsedge; [9]): 0 | S. Flatsedge plant response rating (smallflower flatsedge; [10]): 0 | Crabgrass plant response rating (crabgrass; [1]): 0 | Crabgrass plant response rating (crabgrass; [2]): 0 | Crabgrass plant response rating (crabgrass; [3]): 5 | Plant response rating, Crabgrass (crabgrass; Preemergence, Rate 62 g/ha): 7 | Plant response rating, Crabgrass (crabgrass; Preemergence, Rate 125 g/ha): 8 | Crabgrass plant response rating (crabgrass; [4]): 8 | Crabgrass plant response rating (crabgrass; [5]): 0 | Crabgrass plant response rating (crabgrass; [6]): 0 | Redroot pigweed plant response rating (pigweed; [1]): 0 | Redroot pigweed plant response rating (pigweed; [2]): 0 | Plant response rating, Redroot pigweed (pigweed; Preemergence, Rate 62 g/ha): 0 | Plant response rating, Redroot pigweed (pigweed; Preemergence, Rate 125 g/ha): 0 | Redroot pigweed plant response rating (pigweed; [4]): 0 | Redroot pigweed plant response rating (pigweed; [5]): 0 | Redroot pigweed plant response rating (pigweed; [6]): 0
